Data reported in US10001485B2, “Methods for sensitizing a quiescent cancer stem cell to a BCR-ABL inhibitor” (The Regents of the University of California, priority 2011, dated 2018).

Key:
[1] = test system: BC LSC (human BC CML CD34+CD38+ progenitors); assay: BC LSC engraftment in vivo (FACS) in mice transplanted with human BC CML CD34+ cells; design: species or system RAG2−/−γc−/− mice; conditions: for Mean (SEM) engraftment of CD34+CD38+ cells, Blood / Mean (SEM) engraftment of CD34+CD38+ cells, Marrow / Mean (SEM) engraftment of CD34+CD38+ cells, Spleen: 2 weeks; for effect on marrow LSC engraftment compared to vehicle treated controls: lower doses: sabutoclax 1.25 mg/kg, dasatinib 25 mg/kg
From the text: (§1) Immunocompromised RAG2^−/−yc^−/− mice were bred and maintained in the University of California San Diego Moores Cancer Center vivarium. Neonatal mice were transplanted intrahepatically with 50,000-200,000 CD34^+ cells according to our previously published methods (see Jaiswal, S. et al. cited above and Jamieson, C. H., et al. cited above). Transplanted mice were screened for tumor formation or human engraftment in peripheral blood by FACS at 6-8 weeks post-transplant. Upon detection of tumors, peripheral blood engraftment, or at 8-12 weeks post-transplant engrafted mice were treated for 2 weeks with dasatinib (daily, 50 mg/kg/day in 50% PEG, 50% PBS by oral gavage), sabutoclax (3 days per week, 5 mg/kg/day in 10% EtOH, 10% Cremaphor EL (Sigma Aldrich) 80% PBS by IP injection), or drug vehicles. Twenty-four hours post-treatment (10-14 weeks post-transplant), mice were euthanized and single cell suspensions of hematopoietic tissues were analyzed for human engraftment by FACS as described previously (see Jaiswal, S. et al. and Jamieson, C. H., et al. cited above). For in vivo combination studies, dasatinib was used at 25 or 50 mg/kg while sabutclax was used at 1.25 or 2.5 mg/kg with the same dosing regimen described above. For serial transplantation, a mix of whole mouse bone marrows was made from mice in the same treatment group. Total bone marrow cells were then counted by using Guava ViaCount Reagent and analysis on a Guava PCA system (Millipore), and transplanted in equal numbers into secondary neonatal recipients by intrahepatic injection. 250,000 whole bone marrow cells per mouse were injected.

BC LSC = assay: Serial transplantation of treated bone marrow into secondary recipients, survival; format: in vivo, RAG2−/−γc−/− mice
From the text: as §1

marrow-engrafted BC LSC = assay: FACS cell cycle analysis (Ki-67/7-AAD) of bone marrow engrafted BC CML cells; format: in vivo, RAG2−/−γc−/− mice; conditions: FIG. 7
From the text: Single cell suspensions of bone marrow cells from mice treated with sabutoclax or vehicle were immunostained with Alexa405-conjugated anti-human CD45 (Invitrogen), Alexa647-anti-human CD38 (Ab Serotec) and biotin-anti-human CD34 (Invitrogen) plus Alexa488-strepavidin (Invitrogen) in 2% fetal bovine serum/PBS-followed by live cell staining using the LIVE/DEAD® Fixable Near-IR Dead Cell Stain Kit (Invitrogen). Surface stained cells were then fixed in 70% ethanol overnight. […] Stained samples were analyzed using a FACSAria and FlowJo.

BCL2 and MCL1 = assay: Bone marrow BCL2, MCL1 and Ki67 IHC analysis of treated engrafted marrow; format: in vivo, RAG2−/−γc−/− mice; conditions: following sabutoclax treatment; data not shown
Description: For IHC, femurs were harvested from transplanted, treated animals, fixed and decalcified in Cal-Ex II (Fisher Scientific, Fair Lawn, N.J.) for 48 hrs, followed by standard tissue processing, paraffin-embedding and sectioning. Paraffin tissue sections were deparaffinized, rehydrated, and boiled in antigen retrieval solution (BD, California) (pH 6.0) for 10 min to retrieve antigen. Tissues were blocked with 5% bovine serum albumin (BSA) and 0.25% Triton X-100 in PBS for 30 min and incubated with primary antibody in PBS with 1% BSA at 4° C. for 16 h. Primary antibodies used were human CD45 (Abcam) and ki67 (BD). IHC staining was then carried out with LSAB System-HRP Kit (Dako Cytomation, Hamburg, Germany) according to manufacturer's protocol using methyl green (Sigma Aldrich) as counterstaining. […] All sections were mounted before examination using a Nikon Eclipse E600 microscope. […]
Bone specimens were fixed and mildly decalcified in Bouin's solution (Sigma-Aldrich, St. Louis, Mo.) for 8 h at room temperature, then postfixed in zinc-containing buffered formalin (Z-Fix; Anatech Ltd., Battle Creek, Mich.) for 3 days at 4° C., and embedded in paraffin. […] The Spectrum Analysis algorithm package and ImageScope analysis software (version 9; Aperio Technologies, Inc.) were applied to quantify IHC stainings.

BC LSC-engrafted marrow = assay: TUNEL apoptosis analysis of engrafted bone marrow; format: in vivo, RAG2−/−γc−/− mice; conditions: following sabutoclax treatment
From the text: For apoptosis analysis, bone marrows are stained using the ApopTag fluorescein in situ TUNEL apoptosis detection kit (Chemicon, #S7110) following the manufacturer's protocol. Sections are mounted as above. Images are acquired using an Applied Imaging Ariol SL-50 automated scanning microscope and image analysis system.

[2] = High dose treatment (sabutoclax 2.5 mg/kg, dasatinib 50 mg/kg)
[3] = Low dose treatment (sabutoclax 1.25 mg/kg, dasatinib 25 mg/kg)

With `Cc1nc(Nc2ncc(C(=O)Nc3c(C)cccc3Cl)s2)cc(N2CCN(CCO)CC2)n1` [Dasatinib, dasatinib] the “Mean (SEM) engraftment of CD34+CD38+ cells, Blood” value (“Mean (SEM) engraftment … Blood” for short) [1, 2] was 3.1 (2.4), the “Mean (SEM) engraftment of CD34+CD38+ cells, Marrow” value (“Mean (SEM) engraftment … Marrow” for short) [1, 2] was 21.23 (2.4) and the “Mean (SEM) engraftment of CD34+CD38+ cells, Spleen” value (from here on “Mean (SEM) engraftment … Spleen”) [1, 2] was 0.2 (0.07). The “Mean (SEM) engraftment … Blood” value [1, 3] was 2.1 (0.9), the “Mean (SEM) engraftment … Marrow” value [1, 3] was 28.8 (10.7) and the “Mean (SEM) engraftment … Spleen” value [1, 3] was 2.0 (0.8). For the same molecule, the “effect on marrow LSC engraftment compared to vehicle treated controls” value [1] was “no significant effect”, the “2° TP - Median survival” value (BC LSC; High dose treatment) was 43 days and the “2° TP - Median survival” value (BC LSC; Low dose treatment) was 79 days.

`Cc1cc2c(C(=O)NC[C@H](C)c3ccccc3)c(O)c(O)cc2c(O)c1-c1c(C)cc2c(C(=O)NC[C@H](C)c3ccccc3)c(O)c(O)cc2c1O` [Sabutoclax] was tested, and the “LSC engraftment in all hematopoietic tissues including bone marrow” value ([1]; 5 mg/kg, FIG. 5b) was “significantly reduced”, the “Mean (SEM) engraftment … Blood” value [1, 2] was 24.5 (17.6) and the “Mean (SEM) engraftment … Marrow” value [1, 2] was 30.01 (23.2). The “Mean (SEM) engraftment … Spleen” value [1, 2] was 5.1 (1.5), the “Mean (SEM) engraftment … Blood” value [1, 3] was 11.0 (3.8) and the “Mean (SEM) engraftment … Marrow” value [1, 3] was 34.2 (12.5). The “Mean (SEM) engraftment … Spleen” value [1, 3] was 12 (2.7), the “effect on marrow LSC engraftment compared to vehicle treated controls” value [1] was “no significant effect” and the “2° TP - Median survival” value (BC LSC; High dose treatment) was 45 days. The “2° TP - Median survival” value (BC LSC; Low dose treatment) was 74 days, the “G2/S cells in engrafted marrow” value (marrow-engrafted BC LSC) was “slight increase” and the “BCL2 and MCL1 immunopositive cells in BC LSC-engrafted marrow” value (BCL2 and MCL1) was “reduced amount”. The “TUNEL+ apoptotic cells in engrafted marrow” value (BC LSC-engrafted marrow) was “increased”.
